The values that follow come from US8835147B2, “Cellular production of glucaric acid through recombinant expression of uronate dehydrogenase and myo-inositol oxygenase” (Massachusetts Institute of Technology, priority 2008, dated 2014).

The kcat is the number of substrate molecules converted per active site and unit of time at saturation. Usually Km stands for the concentration of substrate that gives half-maximal velocity.

Where “and” joins values, the source holds several entries; their conditions need not be identical. Equal values may be shown once. Read-outs that look alike come from different tables or passages of the source.

For series [1], the target named is T1, MIOX from hog kidney (Sus scrofa, UniProt Q8WN98).
T1 sequence (Q8WN98 1-282): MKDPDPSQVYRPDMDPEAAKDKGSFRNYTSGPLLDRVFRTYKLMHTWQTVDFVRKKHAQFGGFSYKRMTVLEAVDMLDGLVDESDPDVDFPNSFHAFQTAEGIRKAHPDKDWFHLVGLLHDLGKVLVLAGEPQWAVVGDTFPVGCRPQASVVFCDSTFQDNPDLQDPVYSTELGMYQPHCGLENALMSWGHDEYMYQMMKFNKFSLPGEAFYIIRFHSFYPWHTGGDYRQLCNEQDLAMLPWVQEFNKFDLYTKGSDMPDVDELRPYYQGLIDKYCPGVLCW
As to conditions: cited from earlier work; for inhibition of MIOX from hog kidney in vitro: reported (30, 31); for inhibition of MIOX activity: at high concentrations, reported previously (30, 31).

The target of series [2] is T2, uronate dehydrogenase from A. tumefaciens (Agrobacterium fabrum, UniProt Q7CRQ0).
T2 construct: 6xHis (C); made in house; host or cells: E. coli BL21 (DE3)
Briefly: Kinetic analysis of purified Udh (initial NADH generation at 340 nm). It counts as biochemical, Agrobacterium tumefaciens str. C58. As to conditions: for kcat / Km: purified 6×His Udh, 0 to 10 mM substrate, 1.2 mM NAD^+. Here is the method:
(§1) The udh genes from genomic DNA of A. tumefaciens, P. putida, and P. syringae were amplified using primers ATuEQ-F/R, PPuEQ-F/R, and PSuEQ-F/R as listed in Table 4. The PCR products were digested with SacI and HindIII and inserted into the same sites of pET21b containing a 6×His-Tag to construct pETATu, pETPPu, and pETPSu, respectively (Table 4). These plasmids were used to transform E. coli BL21 (DE3) to use for protein expression. The recombinant E. coli BL21 strains were cultivated at 30° C., 250 rpm for 6 hours after IPTG induction. Protein purification was carried out using the ProBond™ Purification System as described by the manufacturer (Invitrogen Corp, Carlsbad, Calif., USA). SDS-PAGE (sodium dodecyl sulfate-polyacrylamide gel electrophoresis) was performed as described in Sambrook et. al. (35). Enzyme activities on substrates of purified proteins were measured by monitoring initial NADH generation at 340 nm and room temperature. Kinetic analysis on glucuronate and galacturonate was carried out using 0 to 10 mM glucuronate or galacturonate and 1.2 mM NAD^+ in 100 mM Tris-HCl, pH 8.0. Kinetic analysis on NAD^+ was performed using 0 to 2 mM NAD^+ and 10 mM glucuronate in 100 mM Tris-HCl, pH 8.0. A series of enzymatic assays were conducted to estimate the initial activity as a function of starting substrate concentration. […] Nonlinear least-squares regression analyses were performed via the Gauss-Newton method as implemented using the intrinsic Matlab® function nlinfit.

Series [3] deals with T3, uronate dehydrogenase from P. putida (Pseudomonas putida, UniProt Q88NN6).
T3 construct: 6xHis (C); made in house; host or cells: E. coli BL21 (DE3)
The description is as above. It counts as biochemical, Pseudomonas putida KT2440. As to conditions: purified 6×His Udh, 0 to 10 mM substrate, 1.2 mM NAD^+. As for the experimental part: as §1

Series [4] deals with T4, uronate dehydrogenase from P. syringae (Pseudomonas syringae pv. tomato, UniProt Q888H1).
T4 construct: 6xHis (C); made in house; host or cells: E. coli BL21 (DE3)
Described as above. It counts as biochemical, Pseudomonas syringae pv. tomato str. DC3000. As to conditions: purified 6×His Udh, 0 to 10 mM substrate, 1.2 mM NAD^+. As for the experimental part:
as §1

Series [5] deals with T5, uronate dehydrogenase (Udh) of P. syringae (Pseudomonas syringae pv. tomato, UniProt Q888H1).
T5 construct: made in house; host or cells: E. coli (DH10B or BL21(DE3)); crude lysate, not purified
Kind of series: Udh activity in crude E. coli lysates (NADH generation at 340 nm). It counts as biochemical. As to conditions: crude E. coli lysates containing the P. syringae udh gene; data not shown. As for the experimental part: Assays for uronate dehydrogenase activity were performed by monitoring NADH co-factor generation at 340 nm as described previously (35, 40). The reaction mixture contained 100 mM sodium phosphate buffer (pH 8.0), 2.5 mM glucuronic acid, 0.9 mM NAD^+, and bacterial lysate prepared as described above.
Bacterial lysates for enzymatic analysis were prepared by the freeze-thaw method. E. coli strains harboring udh genes were grown overnight in LB medium containing 0.1 mM IPTG (Isopropyl β-D-1-thiogalactopyranoside). Pellets were re-suspended in 1 mg/mL lysozyme solution and incubated on ice for 30 min. The suspensions were frozen in liquid nitrogen then thawed in a 37° C. water bath. This step was repeated five times. Cell lysates were centrifuged at 14,000 rpm at 4° C. for 15 min, and the supernatant was used for enzymatic analysis. Udh activities on glucuronate were measured by monitoring NADH (nicotinamide adenine dinucleotide, reduced) generation at 340 nm (38). The reaction mixture was consisted of 2.5 mM glucuronate, 0.9 mM NAD^+ (nicotinamide adenine dinucleotide), and 100 mM sodium phosphate buffer. The reaction was initiated by the addition of lysate to the reaction mixture at room temperature, and monitored. […] The total protein concentration was determined using the Bradford method (Bradford (1976) Anal Biochem 72:248-54). […]

Series [6] relates to E. coli. Briefly: E. coli growth and glucose consumption with added organic acid salts. As to conditions: added at concentrations as high as 10 g/L; data not shown. It counts as cell-based, Escherichia coli.
A short description of series [7]: Thermal stability of purified Udhs (30 minutes at temperature, then standard assay). As to conditions: purified Udh, FIG. 10b. It counts as physicochemical. As for the experimental part: The impact of temperature was evaluated in two ways. First, the thermal stability was examined by exposing enzyme preparations to various temperatures for 30 minutes, then performing the enzyme assay under standard conditions. […] The activity remained near 80% of maximum after exposure of the A. tumefaciens preparation to 37° C., while the corresponding activities for both of the other enzymes was below 20% of maximum. The stability profiles for both Pseudomonas enzymes were similar to one another. Finally, enzyme activity was evaluated for assays conducted under increasing temperatures. These activities followed a general trend of increasing activity with increasing temperature between 4 and 42° C., which is consistent with an Arrhenius-type dependence of the catalytic rate constant on temperature (FIG. 10c).

[8] abbreviates: 100 mM Tris-HCl pH 8.0, room temperature.

T4 sequence (Q888H1 whole entry): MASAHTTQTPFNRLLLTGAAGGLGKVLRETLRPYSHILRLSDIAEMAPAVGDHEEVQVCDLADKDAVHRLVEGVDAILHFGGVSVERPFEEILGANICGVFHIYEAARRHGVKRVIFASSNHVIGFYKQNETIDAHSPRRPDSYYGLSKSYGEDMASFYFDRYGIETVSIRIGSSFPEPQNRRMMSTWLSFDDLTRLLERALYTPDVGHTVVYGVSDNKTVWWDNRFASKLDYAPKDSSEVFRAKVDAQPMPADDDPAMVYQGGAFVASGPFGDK
T3 sequence (Q88NN6 whole entry): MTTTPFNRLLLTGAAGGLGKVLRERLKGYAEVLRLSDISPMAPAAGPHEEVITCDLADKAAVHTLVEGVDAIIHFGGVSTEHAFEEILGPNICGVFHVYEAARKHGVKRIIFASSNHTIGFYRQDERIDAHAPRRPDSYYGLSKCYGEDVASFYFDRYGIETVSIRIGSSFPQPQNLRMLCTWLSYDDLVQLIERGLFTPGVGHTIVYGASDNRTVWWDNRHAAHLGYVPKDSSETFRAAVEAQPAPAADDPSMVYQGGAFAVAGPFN
T5 sequence (Q888H1 whole entry): as the sequence (Q888H1 whole entry) above

As for `O=C(O)[C@@H](O)[C@@H](O)[C@H](O)[C@@H](O)C(=O)O` [D-glucaric acid], in series [1], the “inhibition of MIOX from hog kidney in vitro” value (“inhibition of MIOX … in vitro” for short) is “inhibited”.

With `O=C[C@H](O)[C@H]1OC(=O)[C@@H](O)[C@H]1O` [D-glucuronolactone], the “inhibition of MIOX … in vitro” value in series [1] is given as “not”.

For `[Fe+2]` [Fe^2+], the “inhibition of MIOX activity” value in series [1] is “inhibited”.

As to `O=C(O)[C@H]1O[C@H](O)[C@H](O)[C@@H](O)[C@H]1O` [Galacturonate, galacturonate], the turnover number (kcat) in series [2] (setting [8]) was 92 ± 14 s⁻¹ and 91.85 ± 14.26 s⁻¹; in series [2] (pH 8.0) it was 0.9 ± 0.14 10^2 · 1/s; in series [3] (setting [8]), 30 ± 3 s⁻¹ and 30.08 ± 3.12 s⁻¹; in series [3] (pH 8.0), 0.3 ± 0.03 10^2 · 1/s; in series [4] (setting [8]), 24 ± 1 s⁻¹ and 24.02 ± 0.73 s⁻¹; in series [4] (pH 8.0), 0.2 ± 0.01 10^2 · 1/s. Further, the Km in series [2] (pH 8.0) came to 160 ± 120 µM; in series [3] (pH 8.0), 100 ± 60 µM; in series [4] (pH 8.0), 40 µM.

On to `O=C(O)[C@H]1O[C@@H](O)[C@H](O)[C@@H](O)[C@@H]1O` [Glucuronate, glucuronate], for which the “kcat (highest rate constant)” value in series [2] was 190 s⁻¹; in series [2] (unit not given), 1.9×10^2. Also, the “kcat of A. tumefaciens enzyme relative to the Pseudomonas enzymes” value in series [2] (glucuronate as substrate) is on record as “more than 2 fold”. Moreover, the kcat in series [2] (setting [8]) is 194 ± 12 s⁻¹ and 193.90 ± 11.84 s⁻¹; in series [2] (pH 8.0), 1.9 ± 0.12 10^2 · 1/s; in series [3] (setting [8]), 55 ± 3 s⁻¹ and 54.57 ± 2.60 s⁻¹; in series [3] (pH 8.0), 0.5 ± 0.03 10^2 · 1/s; in series [4] (setting [8]) it was 74 ± 3 s⁻¹ and 73.77 ± 3.13 s⁻¹; in series [4] (pH 8.0) it was 0.7 ± 0.03 10^2 · 1/s. Besides, the Michaelis constant (Km) in series [2] (pH 8.0) was found to be 370 ± 120 µM; in series [3] (pH 8.0), 250 ± 70 µM; in series [4] (pH 8.0), 280 ± 70 µM. In series [1], the “inhibition of MIOX … in vitro” value is “not”.

With `NC(=O)c1ccc[n+]([C@@H]2O[C@H](COP(=O)([O-])OP(=O)(O)OC[C@H]3O[C@@H](n4cnc5c(N)ncnc54)[C@H](OP(=O)(O)O)[C@@H]3O)[C@@H](O)[C@H]2O)c1` [NADP^+], the “utilization as a co-factor” value in series [5] was “not”.

With `NC(=O)c1ccc[n+]([C@@H]2O[C@H](COP(=O)([O-])OP(=O)(O)OC[C@H]3O[C@@H](n4cnc5c(N)ncnc54)[C@H](O)[C@@H]3O)[C@@H](O)[C@H]2O)c1` [NAD^+, nicotinamide adenine dinucleotide], the “utilization as a co-factor” value in series [5] is on record as “utilized”.

Consider `N[C@@H](CS)C(=O)O` [cysteine], for which the “inhibition of MIOX activity” value in series [1] is “inhibited”.

As to `O=C([O-])[C@@H](O)[C@@H](O)[C@H](O)[C@@H](O)C(=O)[O-].[K+].[K+]` [potassium glucarate], in series [6], the “E. coli growth and glucose consumption” value is given as “not observed to be affected”.

For the molecule `O=C[C@H](O)[C@@H](O)[C@H](O)[C@H](O)C(=O)[O-].[Na+]` [sodium glucuronate], in series [6], the “E. coli growth and glucose consumption” value is recorded as “not observed to be affected”.

B1: A. tumefaciens Udh: 6×-His tagged uronate dehydrogenase from A. tumefaciens str. C58 (SEQ ID NO:24), expressed in E. coli and purified (protein, listed as Agrobacterium tumefaciens)
chain: MKRLLVTGAAGQLGRVMRERLAPMAEILRLADLSPLDPAGPNEECVQCDLADANAVNAMVAGCDGIVHLGGISVEKPFEQILQGNIIGLYNLYEAARAHGQPRIVFASSNHTIGYYPQTERLGPDVPARPDGLYGVSKCFGENLARMYFDKFGQETALVRIGSCTPEPNNYRMLSTWFSHDDFVSLIEAVFRAPVLGCPVVWGASANDAGWWDNSHLGFLGWKPKDNAEAFRRHITETTPPPDPNDALVRFQGGTFVDNPIFKQS
modifications: 6xHis tag
Regarding B1, in series [7], the “activity after exposure to 37° C. for 30 minutes” value is given as ~80 % of maximum.
